In patent US20240209028A1, “CNP COMPOUNDS” (priority 2022, published 2024):
Converted amounts (≈) assume the structure as drawn. Read-outs that look alike come from different tables or passages of the source. Starred links: 1 amine or outer side, 2 acyl side, 3 side chain; linkers in the order of their positions; H or OH if unused. Positions of bridges follow the written chain, without caps; N, C: chain ends. Residues, ends and D or L forms follow the SMILES beside them. *: point of attachment. C18 diacid = O=C(O)CCCCCCCCCCCCCCCCC(=O)*; γGlu = O=C(O)[C@H](CCC(=O)[*:2])N[*:1]; AEEA = NCCOCCOCC(=O)O

Columns and labels:
[1] = biological target: T1, human natriuretic peptide receptor 2 (hNPR2) (Homo sapiens, UniProt P20594); test: In vitro hNPR2 activity assay (cGMP GloSensor reporter, HEK293); format: cell-based; conditions: potency relative to CNP22 (0065)
T1 construct: expressed in transfected cells; host or cells: HEK293 (ATCC CRL-1573), clone 35, co-transfected with pGloSensor-42F
T1 sequence (P20594 23-1047): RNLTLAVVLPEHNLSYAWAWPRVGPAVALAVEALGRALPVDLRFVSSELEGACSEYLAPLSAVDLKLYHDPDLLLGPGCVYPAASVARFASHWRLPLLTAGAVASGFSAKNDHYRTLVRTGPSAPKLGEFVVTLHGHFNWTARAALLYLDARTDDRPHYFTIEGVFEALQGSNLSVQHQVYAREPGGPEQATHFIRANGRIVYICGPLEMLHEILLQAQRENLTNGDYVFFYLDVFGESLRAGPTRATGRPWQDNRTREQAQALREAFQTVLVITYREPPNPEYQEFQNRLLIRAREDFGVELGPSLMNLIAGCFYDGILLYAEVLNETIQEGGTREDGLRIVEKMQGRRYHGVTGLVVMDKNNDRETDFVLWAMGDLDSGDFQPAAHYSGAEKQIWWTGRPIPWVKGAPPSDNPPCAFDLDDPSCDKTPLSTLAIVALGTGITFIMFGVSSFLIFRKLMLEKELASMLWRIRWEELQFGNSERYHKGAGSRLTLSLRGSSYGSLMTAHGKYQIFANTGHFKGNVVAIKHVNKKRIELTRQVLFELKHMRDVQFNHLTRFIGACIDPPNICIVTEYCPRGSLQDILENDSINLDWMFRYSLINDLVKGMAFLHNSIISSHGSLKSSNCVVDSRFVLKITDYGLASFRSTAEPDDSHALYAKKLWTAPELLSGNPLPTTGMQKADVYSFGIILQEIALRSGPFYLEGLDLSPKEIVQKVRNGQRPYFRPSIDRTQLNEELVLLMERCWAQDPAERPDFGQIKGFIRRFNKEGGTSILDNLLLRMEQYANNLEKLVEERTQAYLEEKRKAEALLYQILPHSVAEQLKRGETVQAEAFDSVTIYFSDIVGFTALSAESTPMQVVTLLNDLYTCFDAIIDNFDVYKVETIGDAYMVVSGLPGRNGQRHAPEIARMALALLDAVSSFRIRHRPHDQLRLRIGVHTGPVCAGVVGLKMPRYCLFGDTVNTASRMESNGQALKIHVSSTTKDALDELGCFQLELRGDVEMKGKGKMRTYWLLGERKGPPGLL
Method in brief: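 Potency is the EC50 from a four-parameter logistic fit, also expressed relative to the in-plate CNP22 control (×100), with at least two replicates. Compounds (ten concentrations, […], HSA-free diluent with 1% OVA, 0.01% Tween20) were incubated 30 min at 37 °C on HEK293 cells co-expressing hNPR2 and a GloSensor cGMP luciferase. Luminescence detected with Bright-Glo.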

[2] = Solubility of CNP compounds at pH 4.0 and pH 6.5; format: physicochemical
Method in brief: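 Freeze-dried peptide was brought to a nominal ≥4000-5000 nmol/mL in 5 mM sodium acetate, 250 mM glycerol (pH 4.0) or in 8 mM sodium phosphate, 23 mg/mL glycerol (pH 6.5 via NaOH titration). Samples were equilibrated at room temperature overnight if undissolved, and supernatant concentration was measured by CAD.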

[3] = 8 mM sodium phosphate, 23 mg/mL glycerol, pH 6.5, room temperature, read-out: Solubility at pH 6.5

SMILES	hNPR2 0% HSA. [EC50% rel CNP] [1] [%]	solubility [2, 3] [mM]	solubility ([2]; 5 mM sodium acetate, 250 mM glycerol, pH 4.0, room temperature, read-out: Solubility at pH 4.0) [mM]
CC[C@H](C)[C@@H]1NC(=O)[C@H](CCCNC(=N)N)NC(=O)[C@H](CC(=O)O)NC(=O)[C@H](CC(C)C)NC(=O)[C@@H]2CCCN2C(=O)[C@H](CC(C)C)NC(=O)CNC(=O)[C@H](Cc2ccccc2)NC(=O)[C@@H](NC(=O)CNC(=O)[C@H](CO)NC(=O)[C@H](CO)NC(=O)[C@H](CC(C)C)NC(=O)CNC(=O)[C@H](CCCCN)NC(=O)[C@H](CCCCN)NC(=O)[C@H](CCC(N)=O)NC(=O)[C@H](C)NC(=O)CNC(=O)[C@H](CCC(=O)O)NC(=O)[C@H](Cc2ccc(O)cc2)NC(=O)COCCOCCNC(=O)COCCOCCNC(=O)COCCOCCNC(=O)COCCOCCNC(=O)CC[C@H](NC(=O)CCCCCCCCCCCCCCCCC(=O)O)C(=O)O)CSSC[C@@H](C(=O)O)NC(=O)CNC(=O)[C@H](CC(C)C)NC(=O)CNC(=O)[C@H](CO)NC(=O)[C@H](CC(C)C)NC(=O)[C@H](CO)NC(=O)CNC1=O [compound 1392] ({C18 diacid-γGlu-AEEA-AEEA-AEEA-AEEA}-YEGAQKKGLSSGCFGLPLDRIGSLSGLGC-OH; disulfide 13-29)	29.5	9.88 (≈ 38.7 mg/mL)	
CC[C@H](C)[C@@H]1NC(=O)[C@H](CCCNC(=N)N)NC(=O)[C@H](CC(=O)O)NC(=O)[C@H](CC(C)C)NC(=O)[C@@H]2CCCN2C(=O)[C@H](CC(C)C)NC(=O)CNC(=O)[C@H](Cc2ccccc2)NC(=O)[C@@H](NC(=O)CNC(=O)[C@H](CCC(N)=O)NC(=O)[C@H](CO)NC(=O)[C@H](CC(C)C)NC(=O)CNC(=O)[C@H](CCCCN)NC(=O)[C@H](CCCCN)NC(=O)[C@H](CCC(N)=O)NC(=O)[C@H](C)NC(=O)CNC(=O)[C@H](CCCCN)NC(=O)[C@H](Cc2ccc(O)cc2)NC(=O)[C@H](CCCCN)NC(=O)[C@H](CCCNC(=N)N)NC(=O)[C@H](C)NC(=O)[C@H](CCC(N)=O)NC(=O)[C@@H]2CCCN2C(=O)[C@H](Cc2c[nH]cn2)NC(=O)[C@H](CCC(=O)O)NC(=O)[C@H](CCC(N)=O)NC(=O)COCCOCCNC(=O)COCCOCCNC(=O)CC[C@H](NC(=O)CC[C@H](NC(=O)CC[C@H](NC(=O)CC[C@H](NC(=O)CC[C@H](NC(=O)CC[C@H](NC(=O)CCCCCCCCCCCCCCCCC(=O)O)C(=O)O)C(=O)O)C(=O)O)C(=O)O)C(=O)O)C(=O)O)CSSC[C@@H](C(=O)O)NC(=O)CNC(=O)[C@H](CC(C)C)NC(=O)CNC(=O)[C@H](CO)NC(=O)[C@H](CC(C)C)NC(=O)[C@H](CO)NC(=O)CNC1=O [compound 1402] ({C18 diacid-γGlu-γGlu-γGlu-γGlu-γGlu-γGlu-AEEA-AEEA}-QEHPQARKYKGAQKKGLSQGCFGLPLDRIGSLSGLGC-OH; disulfide 21-37)	57.6	10 (≈ 53 mg/mL)	
CC[C@H](C)[C@@H]1NC(=O)[C@H](CCCNC(=N)N)NC(=O)[C@H](CC(=O)O)NC(=O)[C@H](CC(C)C)NC(=O)[C@@H]2CCCN2C(=O)[C@H](CC(C)C)NC(=O)CNC(=O)[C@H](Cc2ccccc2)NC(=O)[C@@H](NC(=O)CNC(=O)[C@H](CCC(N)=O)NC(=O)[C@H](CO)NC(=O)[C@H](CC(C)C)NC(=O)CNC(=O)[C@H](CCCCN)NC(=O)[C@H](CCCCN)NC(=O)[C@H](CCC(N)=O)NC(=O)[C@H](C)NC(=O)CNC(=O)[C@H](CCCCN)NC(=O)[C@H](Cc2ccc(O)cc2)NC(=O)[C@H](CCCCN)NC(=O)[C@H](CCCNC(=N)N)NC(=O)[C@H](C)NC(=O)[C@H](CCC(N)=O)NC(=O)[C@@H]2CCCN2C(=O)[C@H](Cc2c[nH]cn2)NC(=O)[C@H](CCC(=O)O)NC(=O)[C@H](CCC(N)=O)NC(=O)COCCOCCNC(=O)COCCOCCNC(=O)COCCOCCNC(=O)COCCOCCNC(=O)CC[C@H](NC(=O)CC[C@H](NC(=O)CC[C@H](NC(=O)CC[C@H](NC(=O)CC[C@H](NC(=O)CC[C@H](NC(=O)CCCCCCCCCCCCCCCCC(=O)O)C(=O)O)C(=O)O)C(=O)O)C(=O)O)C(=O)O)C(=O)O)CSSC[C@@H](C(=O)O)NC(=O)CNC(=O)[C@H](CC(C)C)NC(=O)CNC(=O)[C@H](CO)NC(=O)[C@H](CC(C)C)NC(=O)[C@H](CO)NC(=O)CNC1=O [compound 1404] ({C18 diacid-γGlu-γGlu-γGlu-γGlu-γGlu-γGlu-AEEA-AEEA-AEEA-AEEA}-QEHPQARKYKGAQKKGLSQGCFGLPLDRIGSLSGLGC-OH; disulfide 21-37)	81.3	6.88 (≈ 38.4 mg/mL)	
CC[C@H](C)[C@@H]1NC(=O)[C@H](CCCNC(=N)N)NC(=O)[C@H](CC(=O)O)NC(=O)[C@H](CC(C)C)NC(=O)[C@@H]2CCCN2C(=O)[C@H](CC(C)C)NC(=O)CNC(=O)[C@H](Cc2ccccc2)NC(=O)[C@@H](NC(=O)CNC(=O)[C@H](CCC(N)=O)NC(=O)[C@H](CO)NC(=O)[C@H](CC(C)C)NC(=O)CNC(=O)[C@H](CCCCN)NC(=O)[C@H](CCCCN)NC(=O)[C@H](CCC(N)=O)NC(=O)[C@H](C)NC(=O)CNC(=O)[C@H](CCCCN)NC(=O)[C@H](Cc2ccc(O)cc2)NC(=O)[C@H](CCCCN)NC(=O)[C@H](CCCNC(=N)N)NC(=O)[C@H](C)NC(=O)[C@H](CCC(N)=O)NC(=O)[C@@H]2CCCN2C(=O)[C@H](Cc2c[nH]cn2)NC(=O)[C@H](CCC(=O)O)NC(=O)[C@H](CCC(N)=O)NC(=O)COCCOCCNC(=O)COCCOCCNC(=O)COCCOCCNC(=O)COCCOCCNC(=O)CC[C@H](NC(=O)CC[C@H](NC(=O)CC[C@H](NC(=O)CC[C@H](NC(=O)CC[C@H](NC(=O)CCCCCCCCCCCCCCCCC(=O)O)C(=O)O)C(=O)O)C(=O)O)C(=O)O)C(=O)O)CSSC[C@@H](C(=O)O)NC(=O)CNC(=O)[C@H](CC(C)C)NC(=O)CNC(=O)[C@H](CO)NC(=O)[C@H](CC(C)C)NC(=O)[C@H](CO)NC(=O)CNC1=O [compound 1406] ({C18 diacid-γGlu-γGlu-γGlu-γGlu-γGlu-AEEA-AEEA-AEEA-AEEA}-QEHPQARKYKGAQKKGLSQGCFGLPLDRIGSLSGLGC-OH; disulfide 21-37)	59.1	5.67 (≈ 30.9 mg/mL)	
CC[C@H](C)[C@@H]1NC(=O)[C@H](CCCNC(=N)N)NC(=O)[C@H](CC(=O)O)NC(=O)[C@H](CC(C)C)NC(=O)[C@@H]2CCCN2C(=O)[C@H](CC(C)C)NC(=O)CNC(=O)[C@H](Cc2ccccc2)NC(=O)[C@@H](NC(=O)CNC(=O)[C@H](CCCCN)NC(=O)[C@H](CO)NC(=O)[C@@H](NC(=O)CNC(=O)[C@@H](NC(=O)[C@H](Cc2c[nH]cn2)NC(=O)[C@H](CCC(N)=O)NC(=O)[C@H](C)NC(=O)CNC(=O)[C@H](Cc2c[nH]cn2)NC(=O)[C@H](Cc2ccc(O)cc2)NC(=O)[C@H](CCCCN)NC(=O)[C@H](CCCNC(=N)N)NC(=O)[C@H](C)NC(=O)COCCOCCNC(=O)COCCOCCNC(=O)CC[C@H](NC(=O)CC[C@H](NC(=O)CC[C@H](NC(=O)CCCCCCCCCCCCCCCCC(=O)O)C(=O)O)C(=O)O)C(=O)O)[C@@H](C)O)C(C)C)CSSC[C@@H](C(=O)O)NC(=O)CNC(=O)[C@H](CC(C)C)NC(=O)CNC(=O)[C@H](CO)NC(=O)[C@H](CC(C)C)NC(=O)[C@H](CO)NC(=O)CNC1=O [compound 1420] ({C18 diacid-γGlu-γGlu-γGlu-AEEA-AEEA}-ARKYHGAQHTGVSKGCFGLPLDRIGSLSGLGC-OH; disulfide 16-32)	87.5	1.41 (≈ 6 mg/mL)	
CC[C@H](C)[C@@H]1NC(=O)[C@H](CCCNC(=N)N)NC(=O)[C@H](CC(=O)O)NC(=O)[C@H](CC(C)C)NC(=O)[C@@H]2CCCN2C(=O)[C@H](CC(C)C)NC(=O)CNC(=O)[C@H](Cc2ccccc2)NC(=O)[C@@H](NC(=O)CNC(=O)[C@H](CO)NC(=O)[C@H](CO)NC(=O)[C@@H](NC(=O)CNC(=O)[C@H](CCCCN)NC(=O)[C@H](CCCCN)NC(=O)[C@H](CCC(N)=O)NC(=O)[C@H](C)NC(=O)CNC(=O)[C@H](Cc2c[nH]cn2)NC(=O)[C@H](Cc2ccc(O)cc2)NC(=O)[C@H](CCCCN)NC(=O)[C@H](CCCNC(=N)N)NC(=O)[C@H](C)NC(=O)COCCOCCNC(=O)COCCOCCNC(=O)CC[C@H](NC(=O)CC[C@H](NC(=O)CC[C@H](NC(=O)CCCCCCCCCCCCCCCCC(=O)O)C(=O)O)C(=O)O)C(=O)O)C(C)C)CSSC[C@@H](C(=O)O)NC(=O)CNC(=O)[C@H](CC(C)C)NC(=O)CNC(=O)[C@H](CO)NC(=O)[C@H](CC(C)C)NC(=O)[C@H](CO)NC(=O)CNC1=O [compound 1422] ({C18 diacid-γGlu-γGlu-γGlu-AEEA-AEEA}-ARKYHGAQKKGVSSGCFGLPLDRIGSLSGLGC-OH; disulfide 16-32)	75.3		8.29 (≈ 35.1 mg/mL)
